Patent US9708314B2, “Heterocyclic amide compound” (NISSAN CHEMICAL INDUSTRIES, LTD., priority 2013, dated 2017)

Experiments:
Assay type in all cases: in vivo
[1] = test system: Echinochloa oryzacola Vasing.; experiment: Test Example 1: herbicidal activity, application before weed generation in submerged conditions; details: Application herbicide amount 320 g/ha; Seventeenth Table
Text: (§1) [Test Example 1] Herbicidal Activity Test by Application Before Weed Generation in Submerged Conditions After alluvial soil was placed into 1/10000 are of Wagner pot, water was poured and mixed to form a submerged condition having a water depth of 4 cm. Seeds of Echinochloa oryzacola Vasing., Scirpus juncoides, and Monochoria vaginalis were sowed in a mixed manner in the above pot and thereafter 2.5 leaf stage Oryza sativa seedling was transplanted. On the day of sowing seeds, the emulsion agent containing the compound of the present invention prepared in accordance with Formulation Example 2 was diluted with water so as to be a predetermined herbicide amount and the diluted compound was applied to the surface of the water. The pot was placed in a greenhouse of 25° C. to 30° C. to grow plant. Three weeks after the herbicide application, effects on each plant were investigated in accordance with the following criteria. Criteria 5 Herbicidal ratio of 90% or more (almost completely withered) 4 Herbicidal ratio of 70% or more and less than 90% 3 Herbicidal ratio of 40% or more and less than 70% 2 Herbicidal ratio of 20% or more and less than 40% 1 Herbicidal ratio of 5% or more and less than 20% 0 Herbicidal ratio of 5% or less (almost no effect) A: Echinochloa oryzicola Vasing., B: Scirpus juncoides, C: Monochoria vaginalis, D: Leptochloa chinensis, E: Cyperus difformis, F: Digitaria ciliaris, G: Setaria viridis, H: Echinochloa crus-galli var. crus-galli, I: Avena fatua, J: Alopecurus myosuroides, K: Lolium multiflorum Lam., L: Apera spica-venti., M: Abutilon theophrasti, N: Amaranthus retroflexus, O: Chenopodium album, P: Stellaria media, Q: Galium spurium, R: Veronica persica, a: transplanted Oryza sativa, b: directly sowed Oryza sativa, c: Zea mays, d: Glycine max, e: Triticum aestivum, f: Beta vulgaris ssp. vulgaris, and g: Brassica campestris L. The application herbicide amount (g/ha) means an amount that a concentration is adjusted so that, when an application amount is converted into per hectare (1 ha), the herbicide is applied by the number of grams (g) of the described value.

Monochoria vaginalis = experiment: as above; details: Application herbicide amount 320 g/ha; Seventeenth Table
Text: as §1

Scirpus juncoides = experiment: as above; details: Application herbicide amount 320 g/ha; Seventeenth Table
Text: as §1

Cyperus difformis = experiment: Test Example 3: herbicidal effect by application to foliage (Wagner pot, water depth 0.1-0.5 cm); details: Nineteenth Table; for E (herbicidal effect grade): application to foliage
Method in brief: (§2)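 Post-emergence foliar application at a stated g/ha rate to plants grown 14 days from seed in alluvial soil, greenhouse 25–30 °C. Visual score after 3 weeks: 0 (≤5% effect) through 5 (≥90%).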

[2] = test system: Echinochloa crus-galli var. crus-galli; experiment: as above; details: Nineteenth Table; for H (herbicidal effect grade): application to foliage
Method in brief: as §2

Leptochloa chinensis = experiment: as above; details: Nineteenth Table; for D (herbicidal effect grade): application to foliage
Method in brief: as §2

[3] = test system: directly sowed Oryza sativa; experiment: Test Example 3: effect on crop by application to foliage (Wagner pot, water depth 0.1-0.5 cm); details: Nineteenth Table; for b (effect on crop grade): application to foliage
Method in brief: as §2

Digitaria ciliaris = experiment: Test Example 4: herbicidal effect by application to foliage (diluvial soil, plastic box); details: for F (Digitaria ciliaris) herbicidal effect: application to foliage, application herbicide amount 320 g/ha; for F: Application herbicide amount 320 g/ha
Method in brief: (§3)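 Greenhouse plants (25° C. to 30° C., 14 d, diluvial soil) receive a foliar spray of water-diluted emulsifiable formulation at defined g/ha. Grading after 3 weeks uses a six-step herbicidal-ratio scale, with 4 covering 70% to <90% and 1 covering 5% to <20%.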

Galium spurium = experiment: as above; details: for Q (Galium spurium) herbicidal effect: application to foliage, application herbicide amount 320 g/ha
Method in brief: as §3

[4] = application herbicide amount 320 g/ha
[5] = application herbicide amount 400 g/ha

SMILES | A: Echinochloa oryzicola Vasing. (herbicidal effect grade) [1] | C: Monochoria vaginalis (herbicidal effect grade) (Monochoria vaginalis) | B: Scirpus juncoides (herbicidal effect grade) (Scirpus juncoides) | E (Cyperus difformis) herbicidal ratio grade (Cyperus difformis; [4]) | H (Echinochloa crus-galli var. crus-galli) herbicidal ratio grade [2, 4] | D (Leptochloa chinensis) herbicidal ratio grade (Leptochloa chinensis; [4]) | b (directly sowed Oryza sativa) effect on crop grade [3, 4] | F (Digitaria ciliaris) herbicidal effect (Digitaria ciliaris) | Q (Galium spurium) herbicidal effect (Galium spurium) | H (Echinochloa crus-galli var. crus-galli) herbicidal ratio grade [2, 5] | D (Leptochloa chinensis) herbicidal ratio grade (Leptochloa chinensis; [5]) | b (directly sowed Oryza sativa) effect on crop grade [3, 5] | E (Cyperus difformis) herbicidal ratio grade (Cyperus difformis; [5]) | E (herbicidal effect grade) (Cyperus difformis; [4]) | H (herbicidal effect grade) [2, 4] | D (herbicidal effect grade) (Leptochloa chinensis; [4]) | b (effect on crop grade) [3, 4] | F (Digitaria ciliaris) | Q (Galium spurium; Application herbicide amount 320 g/ha)
Cc1nnc(NC(=O)c2ccc(C(F)(F)F)n3cnnc23)o1 [1-001] | 3 (Herbicidal ratio of 40% or more and less than 70%) | 2 (Herbicidal ratio of 20% or more and less than 40%) | 2 (Herbicidal ratio of 20% or more and less than 40%) | 4 (Herbicidal ratio of 70% or more and less than 90%) | 5 (Herbicidal ratio of 90% or more (almost completely withered)) | 5 (Herbicidal ratio of 90% or more (almost completely withered)) | 0 (Herbicidal ratio of 5% or less (almost no effect)) | 4 (Herbicidal ratio of 70% or more and less than 90%) | 4 (Herbicidal ratio of 70% or more and less than 90%) |  |  |  |  |  |  |  |  |  | 
Cc1nnc(NC(=O)c2ccc(C(F)(F)F)n3c(C)nnc23)o1 [1-002] | 2 (Herbicidal ratio of 20% or more and less than 40%) | 0 (Herbicidal ratio of 5% or less (almost no effect)) | 1 (Herbicidal ratio of 5% or more and less than 20%) |  |  |  |  | 4 (Herbicidal ratio of 70% or more and less than 90%) | 4 (Herbicidal ratio of 70% or more and less than 90%) | 4 (Herbicidal ratio of 70% or more and less than 90%) | 4 (Herbicidal ratio of 70% or more and less than 90%) | 0 (Herbicidal ratio of 5% or less (almost no effect)) |  |  |  |  |  |  | 
Cc1nnc(NC(=O)c2ccc(C(F)(F)F)n3c(C(C)C)nnc23)o1 [1-004, 3-Isopropyl-N-(5-methyl-1,3,4-oxadiazol-2-yl)-5-(trifluoromethyl)-[1,2,4]triazolo[4,3-a]pyridine-8-carboxamide] | 5 (Herbicidal ratio of 90% or more (almost completely withered)) | 4 (Herbicidal ratio of 70% or more and less than 90%) | 4 (Herbicidal ratio of 70% or more and less than 90%) |  |  |  |  | 5 (Herbicidal ratio of 90% or more (almost completely withered)) | 1 (Herbicidal ratio of 5% or more and less than 20%) | 4 (Herbicidal ratio of 70% or more and less than 90%) | 5 (Herbicidal ratio of 90% or more (almost completely withered)) | 0 (Herbicidal ratio of 5% or less (almost no effect)) | 5 (Herbicidal ratio of 90% or more (almost completely withered)) |  |  |  |  |  | 
Cc1nnc(NC(=O)c2ccc(C(F)(F)F)n3c(C4CC4)nnc23)o1 [1-010] | 5 (Herbicidal ratio of 90% or more (almost completely withered)) |  | 3 (Herbicidal ratio of 40% or more and less than 70%) |  |  |  |  | 3 (Herbicidal ratio of 40% or more and less than 70%) | 1 (Herbicidal ratio of 5% or more and less than 20%) | 5 (Herbicidal ratio of 90% or more (almost completely withered)) | 5 (Herbicidal ratio of 90% or more (almost completely withered)) | 0 (Herbicidal ratio of 5% or less (almost no effect)) | 4 (Herbicidal ratio of 70% or more and less than 90%) |  |  |  |  |  | 
Cc1nnc(NC(=O)c2ccc(C(F)(F)F)n3c(-c4ccccc4)nnc23)o1 [1-012] | 5 (Herbicidal ratio of 90% or more (almost completely withered)) | 4 (Herbicidal ratio of 70% or more and less than 90%) | 3 (Herbicidal ratio of 40% or more and less than 70%) |  |  |  |  | 3 (Herbicidal ratio of 40% or more and less than 70%) | 2 (Herbicidal ratio of 20% or more and less than 40%) | 3 (Herbicidal ratio of 40% or more and less than 70%) | 5 (Herbicidal ratio of 90% or more (almost completely withered)) | 0 (Herbicidal ratio of 5% or less (almost no effect)) |  |  |  |  |  |  | 
CCOC(=O)Cc1nnc2c(C(=O)Nc3nnc(C)o3)ccc(C(F)(F)F)n12 [1-042] | 2 (Herbicidal ratio of 20% or more and less than 40%) | 2 (Herbicidal ratio of 20% or more and less than 40%) | 2 (Herbicidal ratio of 20% or more and less than 40%) | 4 (Herbicidal ratio of 70% or more and less than 90%) | 5 (Herbicidal ratio of 90% or more (almost completely withered)) |  | 1 (Herbicidal ratio of 5% or more and less than 20%) | 4 (Herbicidal ratio of 70% or more and less than 90%) | 3 (Herbicidal ratio of 40% or more and less than 70%) |  |  |  |  |  |  |  |  |  | 
CSC(C)c1nnc2c(C(=O)Nc3nnc(C)o3)ccc(C(F)(F)F)n12 (stereo not drawn) [1-078] | 4 (Herbicidal ratio of 70% or more and less than 90%) | 3 (Herbicidal ratio of 40% or more and less than 70%) | 4 (Herbicidal ratio of 70% or more and less than 90%) |  |  |  |  |  |  |  |  |  |  | 5 (Herbicidal ratio of 90% or more (almost completely withered)) | 5 (Herbicidal ratio of 90% or more (almost completely withered)) | 5 (Herbicidal ratio of 90% or more (almost completely withered)) | 5 (Herbicidal ratio of 90% or more (almost completely withered)) | 5 (Herbicidal ratio of 90% or more (almost completely withered)) | 
CCCSc1nnc2c(C(=O)Nc3nnc(C)o3)ccc(C(F)(F)F)n12 [1-087] | 5 (Herbicidal ratio of 90% or more (almost completely withered)) | 3 (Herbicidal ratio of 40% or more and less than 70%) |  |  |  |  |  |  |  |  |  |  |  | 5 (Herbicidal ratio of 90% or more (almost completely withered)) | 5 (Herbicidal ratio of 90% or more (almost completely withered)) | 5 (Herbicidal ratio of 90% or more (almost completely withered)) | 1 (Herbicidal ratio of 5% or more and less than 20%) | 5 (Herbicidal ratio of 90% or more (almost completely withered)) | 1 (Herbicidal ratio of 5% or more and less than 20%)
